From patent US4277479A, “Tetrazolylalkoxycarbostyril derivatives and pharmaceutical compositions containing them” (Otsuka Pharmaceutical Co., Ltd., priority 1978, dated 1981)

How the values were obtained:
blood platelets = details: at low concentration; Japanese Patent Kokai No. 125,930/73; cited from earlier work
thrombosis = details: administered orally or intravenously to mammals including humans; Japanese Patent Kokai No. 125,930/73; cited from earlier work
[1] = tested on: rabbit platelet (collagen-induced aggregation); test: Platelet aggregation inhibitory effect, collagen-induced aggregation in rabbit platelet; assay type: cell-based; details: Oryctolagus cuniculus, read-out: Inhibition effect on collagen-induced aggregation in rabbit platelet; for inhibition at 100 µM: concentration of the test compound solution 10^-4 mole; for inhibition at 10 µM: concentration of the test compound solution 10^-5 mole; for inhibition at 1 µM: concentration of the test compound solution 10^-6 mole
Description: (§1) The blood sample used for the test is a 1/9 (by volume) mixture of sodium citrate and whole blood collected from rabbit. Said sample is subjected to 10-minute centrifugal separation at 1,000 r.p.m. to obtain a platelet rich plasma (PRP). The thus obtained PRP is separated, and the remaining blood sample is further subjected to 15-minute centrifugal separation at 3,000 r.p.m. to obtain a platelet poor plasma (PPP).
(§2) The number of platelets in the PRP is counted by the Brecher-Clonkite Method, and the PRP is diluted with the PPP to prepare a PRP sample with platelet concentration of 300,000/mm^3 for the adenosine diphosphate (ADP)-induced aggregation test. There is also prepared a PRP sample with platelet concentration of 450,000/mm^3 for the collagen-induced aggregation test.
(§3) 0.6 Ml of said PRP sample is added into 0.01 ml of a solution of a test compound of a predetermined concentration and the mixture is placed in a 37° C. thermostat for one minute. Then 0.07 ml of an ADP or collagen solution is added to the mixture. Transmittance of this mixture is determined and the change of transmittance is recorded by using the aggregometer at stirrer speed of 1,100 r.p.m. […] ADP is adjusted to a concentration of 7.5×10^-5 M, and the collagen solution is prepared by triturating 100 mg of collagen with 5 ml of said buffer and the supernatant is used as collagen inducer. Adenosine and acetylsalicylic acid are used as controls for the ADP-induced aggregation test and the collagen-induced aggregation test, respectively. The platelet aggregation inhibitory effect is measured in terms of percent inhibition with respect to the aggregation rate of the controls. The aggregation rate is calculated from the following formula: [formula] wherein a: transmittance of PRP
(§4) b: transmittance of PRP containing a test compound and an aggregation inducer
(§5) The compounds tested are as follows.

[2] = tested on: rabbit platelet (ADP-induced aggregation); test: Platelet aggregation inhibitory effect, ADP-induced aggregation in rabbit platelet; assay type: cell-based; details: Oryctolagus cuniculus; for inhibition at 100 µM: concentration of the test compound solution 10^-4 mole; for inhibition at 100 µM / inhibition at 10 µM: read-out: Inhibition effect on ADP-induced aggregation in rabbit platelet; for inhibition at 10 µM: concentration of the test compound solution 10^-5 mole; for inhibition at 1 µM: concentration of the test compound solution 10^-6 mole
Description: as §1, §2, §3, §4, §5

[3] = tested on: cerebral blood flow, bastard dog; test: Increasing effect of cerebral blood flow in anesthetized dog; assay type: in vivo; details: Canis lupus familiaris, iv; for change in vivo at 0.3 mg/kg: dosage 300 μg/kg
Protocol: (Test of increasing effect of cerebral blood flow)
Thus, a bastard dog (male, 12-20 kg of body weight) was fixed in a prone (position) and was anesthetized with […] of pentobarbital sodium and forced to breathe at a frequency of respiration of 20 times/minute. Then, the skull was bared and the surface bone was removed to expose the venous sinus by using a grinder and the venous blood was taken out from the venas which was cannulizated. The amount of venous blood flow was measured by using an electromagnetic blood flow meter and next measured by using drop-counter to measure the number of drops of blood per 10 seconds.
The increasing effect of cerebral blood flow was calculated by comparing the number of blood drops in 30 seconds at the peak of increasement shown before and after the administration of compound to be tested. Each of the compounds to be tested was dissolved in dimethylformamide and diluted with physiological saline solution and administered through a cannule being inserted into the profunda femoris vein.

Acute toxicity test = details: mouse, in vivo; male mice, oral administration
Protocol: The test compounds were administered orally to the mice and LD50 (mg/kg) of the compounds was determined.

[4] = through profunda femoris vein, dog

SMILES | inhibition of the aggregation of blood platelets (blood platelets) | effectiveness for preventing and treating thrombosis (thrombosis) | inhibition at 100 µM [1] | inhibition at 10 µM [1] | inhibition at 1 µM [1] | inhibition at 100 µM [2] | inhibition at 10 µM [2] | inhibition at 1 µM [2] | change in vivo at 0.03 mg/kg ([3]; dosage 30 μg/kg, through profunda femoris vein, dog) | LD50 (Acute toxicity test) | change in vivo at 0.3 mg/kg [3, 4] | change in vivo at 1 mg/kg ([3]; read-out: Increasing effect of cerebral blood flow)
CC(C)(C)NCC(O)COc1cccc2c1CCC(=O)N2 (stereo not drawn) [5-(2'-hydroxy-3-tert-butylamino)-propoxy-3,4-dihydrocarbostyril] | could specifically inhibit the aggregation of blood platelets | very effective for preventing and treating thrombosis | – | – | – | – | – | – | – | – | – | –
O=C1CCc2cc(OCCCc3nnnn3C3CCCCC3)ccc2N1 [Compound 3, 6-[3-(1-Cyclohexyltetrazol-5-yl)propoxy]-3,4-dihydrocarbostyril] | – | – | 100% | 53.5% | 10.3% | 76.7% | 59.6% | 9.6% | 69% | > 1000 mg/kg | – | –
O=c1ccc2cc(OCCCc3nnnn3Cc3ccccc3)ccc2[nH]1 [Compound 4, 6-[3-(1-Benzyltetrazol-5-yl)propoxy]carbostyril] | – | – | 100% | 72.5% | 10.8% | 100% | 45.5% | 3.7% | – | > 1000 mg/kg | 65.8% | –
O=c1ccc2cc(OCCCc3nnnn3-c3ccccc3)ccc2[nH]1 [Compound 9, 6-[3-(1-Phenyltetrazol-5-yl)propoxy]carbostyril] | – | – | 100% | 100% | 32.8% | 100% | 45.1% | 26.8% | – | > 1000 mg/kg | 69.9% | –
O=c1ccc2cc(OCCCc3nnnn3C3CCCCC3)ccc2n1Cc1ccccc1 [Compound 12, 1-Benzyl-6-[3-(1-cyclohexyltetrazol-5-yl)propoxy]carbostyril] | – | – | 92.6% | 41.5% | 21.8% | 76.8% | 35.2% | – | – | > 1000 mg/kg | – | –
C=CCn1c(=O)ccc2cc(OCCCc3nnnn3C3CCCCC3)ccc21 [Compound 13, 1-Allyl-6-[3-(1-cyclohexyltetrazol-5-yl)propoxy]carbostyril] | – | – | 89.7% | 44.8% | 23.2% | 81.6% | 41.7% | – | – | > 1000 mg/kg | – | –
CC(=O)N1C(=O)CCc2cc(OCCCc3nnnn3C3CCCCC3)ccc21 [Compound 14, 1-Acetyl-6-[3-(1-cyclohexyltetrazol-5-yl)propoxy]-3,4-dihydrocarbostyril] | – | – | 86.8% | 47.3% | – | 79.4% | 43.2% | – | – | > 1000 mg/kg | – | –
CCc1ccc(-n2nnnc2COc2ccc3c(c2)CCC(=O)N3)cc1 [Compound 15, 6-[1-(4-Ethylphenyl)tetrazol-5-yl-methoxy]3,4-dihydrocarbostyril] | – | – | 100% | 35.1% | – | 78.5% | 38.9% | – | – | > 1000 mg/kg | – | –
COc1cc(C(=O)N2C(=O)CCc3cc(OCCCc4nnnn4C4CCCCC4)ccc32)cc(OC)c1OC [Compound 16, 1-(3,4,5-Trimethoxybenzoyl)-6-[3-(1-cyclohexyltetrazol-5-yl)propoxy]-3,4-dihydrocarbostyril] | – | – | 91.3% | 45.3% | – | 75.6% | 48.4% | – | – | > 1000 mg/kg | – | –
COc1ccc(Cc2nccc3cc(OC)c(OC)cc23)cc1OC [Papaverine, papaverine, reference compound] | – | – | – | – | – | – | – | – | – | – | – | 78.9%
